Experiments:
[1] = tested on: D4539 (Escherichia coli MTP BioA) containing tobacco plants; experiment: Visual herbicide damage score on transgenic tobacco D4539 (pBin TMV MTP EcBioA); type: in vivo; conditions: 600 gai/ha
Text: In order to determine if the overexpressed gene detailed in Example 3 confers resistance to BIO3-BIO1 inhibiting compounds when expressed in plants, GM tobacco lines were produced and tested with BIO3-BIO1 inhibiting compounds. Transgenic tobacco plants expressing the Escherichia coli BioA gene with (SEQ ID NO:203) and without a mitochondrial signal peptide (SEQ ID NO: 202).
Populations of transgenic tobacco comprising 20-30 transgenic events per plant transformation constructs were generated as described in Example 1. These lines were clonally propagated and 1 clone per event was sprayed with 600 g ai/ha compound L or A+0.2% Genapol X080 with a spray volume of 200 L/Ha (“g ai/ha” refers to grams of active compound per hectare).
[…] A score of 0 indicates no visible damage or stunting whereas a score of 100 indicates a complete death of the plant. 20 transgenic events (i.e. individual transgenic plants) from each GM tobacco line were transplanted to soil 1 week prior to spraying with BIO3-BIO1 inhibiting compounds. WT tobacco was included as a control.

[2] = biological target: T1, Arabidopsis thaliana BioDA variant enzymes (Arabidopsis thaliana, UniProt B0F481); experiment: biochemical; conditions: WT Arabidopsis thaliana BioDA (SEQ ID NO 294); read-out: IC50
T1 construct: with the predicted N-terminal mitochondrial transit peptide removed; 6xHis-tag (N); thrombin cleavage site (N); made in house; host or cells: E. coli BL21 (DE3) bioA
Procedure: (§1) These plasmids were then expressed in E. coli BL21 (DE3) bioA with 50 μg/mL kanamycin and 25 μg/mL chloramphenicol selection. Overnight cultures grown at 37° C. were used to inoculate 8×500 mL AIM in shake flasks at a ratio of 1:100. Cultures were grown at 37° C., 200 rpm for 3.5 hours and then overnight at 20° C. Cells were harvested by centrifugation for 30 minutes at 10 000 g. Cells were stored at −80° C. until extraction. 30 g of cell pellet from was thawed in 120 mL of IMAC buffer A (20 mM HEPES pH7.5, 25 mM imidazole, 500 mM sodium chloride, 0.15 mM pyridoxal phosphate, 0.5 mM TCEP, 1× complete Protease Inhibitor Tablet (Roche)). The resuspension was passed through a cell disrupter at 18 000 PSI and centrifuged at 50 000 g for 25 minutes at 4° C. The His-tagged BIO3-BIO1 protein was purified from the extract supernatant on an AKTA avant chromatography system (Cytiva) using a HisTrap FF column and eluted in IMAC buffer B ((20 mM HEPES pH7.5, 500 mM imidazole, 500 mM sodium chloride, 0.15 mM pyridoxal phosphate, 0.5 mM TCEP) followed by SEC using a HiLoad 26/60 Superdex200 column in SEC buffer (25 mM HEPES pH7.5, 150 mM sodium chloride, 0.15 mM pyridoxal phosphate, 0.5 mM TCEP). Protein concentration was measured and calculated using the absorbance at 280 nm. Extracts were diluted 1 in 4 and 10 uL was analysed by SDS PAGE.
(§2) To measure BIO3-BIO1 mutant enzyme activity in the presence of herbicide, herbicides were incubated with 20 μL of enzyme mix (100 mM EPPS pH 8.6, 0.1 mM pyridoxal phosphate, 0.1 mg/mL BSA, 50 nM BIO3-BIO1 enzyme) for 10 minutes at 20° C. in a well of a 96-well half-area black plate, followed by the addition of 20 μL of substrate mix (final concentration of 100 mM EPPS pH 8.6, 0.1 mM pyridoxal phosphate, 0.1 mg/mL BSA, 100 μM spermidine, 20 μM KAPA, 100 mM NaCO3) and further incubation for 75 minutes at 20° C. The reaction was terminated by the addition of 50 μL of derivatisation mix (final concentration of 250 mM borate NaOH pH 9.4, 3.6 mM o-phthalaldehyde, 7 mM β-mercaptoethanol, 17% (v/v) ethanol, 3.6% (v/v) methanol). The fluorescent product produced by the reaction of DAPA with o-phthalaldehyde and 7 mM β-mercaptoethanol was measured at 470 nm after excitation at 410 nm.
(§3) For IC50 calculations, appropriate dose responses of compounds L, M, B, K and G were used. Calculated percentage inhibitions were then input into GraphPad Prism 7 and IC50s calculated using the non-linear regression (vs. normalised response) equation.

[3] = biological target: T2, Arabidopsis thaliana BioDA variant enzymes (Arabidopsis thaliana, UniProt B0F481, C388D); experiment: biochemical
T2 construct: with the predicted N-terminal mitochondrial transit peptide removed; 6xHis-tag (N); thrombin cleavage site (N); made in house; host or cells: E. coli BL21 (DE3) bioA
Procedure: as §1, §2, §3

T2 sequence (B0F481 24-833 C388D): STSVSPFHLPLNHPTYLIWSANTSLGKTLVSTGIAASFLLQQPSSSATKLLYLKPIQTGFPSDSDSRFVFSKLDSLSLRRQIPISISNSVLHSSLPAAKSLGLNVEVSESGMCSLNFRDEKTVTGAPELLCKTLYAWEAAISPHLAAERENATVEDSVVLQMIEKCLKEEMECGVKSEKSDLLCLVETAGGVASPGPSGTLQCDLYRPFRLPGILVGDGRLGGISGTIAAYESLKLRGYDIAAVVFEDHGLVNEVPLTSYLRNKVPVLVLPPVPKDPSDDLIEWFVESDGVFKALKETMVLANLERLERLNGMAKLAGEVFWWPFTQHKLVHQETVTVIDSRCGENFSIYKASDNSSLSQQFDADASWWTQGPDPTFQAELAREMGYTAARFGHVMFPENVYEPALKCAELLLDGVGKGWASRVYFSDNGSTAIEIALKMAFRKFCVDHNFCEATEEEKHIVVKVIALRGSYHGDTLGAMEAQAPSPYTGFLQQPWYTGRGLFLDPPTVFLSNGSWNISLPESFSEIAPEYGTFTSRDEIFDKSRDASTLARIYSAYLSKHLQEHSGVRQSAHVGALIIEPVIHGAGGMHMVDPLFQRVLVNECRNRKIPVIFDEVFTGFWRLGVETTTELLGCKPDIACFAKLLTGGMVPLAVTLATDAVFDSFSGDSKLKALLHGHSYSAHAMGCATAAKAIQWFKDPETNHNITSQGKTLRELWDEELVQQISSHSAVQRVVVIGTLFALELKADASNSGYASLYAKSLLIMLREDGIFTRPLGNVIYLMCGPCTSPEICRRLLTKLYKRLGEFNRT

CCn1c(Cn2ccc(C(F)(F)F)n2)cc(=O)c(C(=O)O)c1-c1ccc(Cl)c(Cl)c1 [Compound L, 2-(3,4-dichlorophenyl)-1-ethyl-4-oxo-6-[[3-(trifluoromethyl)pyrazol-1-yl]methyl]pyridine-3-carboxylic acid]
percentage of damage (herbicide damage score) ([1]; D4539 event 8385, 7 DAT): 10% | percentage of damage (herbicide damage score) ([1]; D4539 event 8385, 14 DAT): 0% | percentage of damage (herbicide damage score) ([1]; D4539 event 8385, 21 DAT): 0% | percentage of damage (herbicide damage score) ([1]; D4539 event 8386, 7 DAT): 7% | percentage of damage (herbicide damage score) ([1]; D4539 event 8386, 14 DAT): 0% | percentage of damage (herbicide damage score) ([1]; D4539 event 8386, 21 DAT): 0% | percentage of damage (herbicide damage score) ([1]; D4539 event 8399, 7 DAT): 2% | percentage of damage (herbicide damage score) ([1]; D4539 event 8399, 14 DAT): 0% | percentage of damage (herbicide damage score) ([1]; D4539 event 8399, 21 DAT): 0% | percentage of damage (herbicide damage score) ([1]; D4539 event 8402, 7 DAT): 3% | percentage of damage (herbicide damage score) ([1]; D4539 event 8402, 14 DAT): 0% | percentage of damage (herbicide damage score) ([1]; D4539 event 8402, 21 DAT): 0% | percentage of damage (herbicide damage score) ([1]; D4539 event 8414, 7 DAT): 2% | percentage of damage (herbicide damage score) ([1]; D4539 event 8414, 14 DAT): 0% | percentage of damage (herbicide damage score) ([1]; D4539 event 8414, 21 DAT): 0% | percentage of damage (herbicide damage score) ([1]; D4539 event 8415, 7 DAT): 7% | percentage of damage (herbicide damage score) ([1]; D4539 event 8415, 14 DAT): 0% | percentage of damage (herbicide damage score) ([1]; D4539 event 8415, 21 DAT): 0% | percentage of damage (herbicide damage score) ([1]; D4539 event 8417, 7 DAT): 2% | percentage of damage (herbicide damage score) ([1]; D4539 event 8417, 14 DAT): 0% | percentage of damage (herbicide damage score) ([1]; D4539 event 8417, 21 DAT): 20% | percentage of damage (herbicide damage score) ([1]; D4539 event 8418, 7 DAT): 10% | percentage of damage (herbicide damage score) ([1]; D4539 event 8418, 14 DAT): 25% | percentage of damage (herbicide damage score) ([1]; D4539 event 8418, 21 DAT): 60% | percentage of damage (herbicide damage score) ([1]; D4539 event 8423, 7 DAT): 2% | percentage of damage (herbicide damage score) ([1]; D4539 event 8423, 14 DAT): 0% | percentage of damage (herbicide damage score) ([1]; D4539 event 8423, 21 DAT): 0% | percentage of damage (herbicide damage score) ([1]; D4539 event 8424, 7 DAT): 65% | percentage of damage (herbicide damage score) ([1]; D4539 event 8424, 14 DAT): 85% | percentage of damage (herbicide damage score) ([1]; D4539 event 8424, 21 DAT): 90% | percentage of damage (herbicide damage score) ([1]; D4539 event 8426, 7 DAT): 2% | percentage of damage (herbicide damage score) ([1]; D4539 event 8426, 14 DAT): 0% | percentage of damage (herbicide damage score) ([1]; D4539 event 8426, 21 DAT): 0% | percentage of damage (herbicide damage score) ([1]; D4539 event 8433, 7 DAT): 5% | percentage of damage (herbicide damage score) ([1]; D4539 event 8433, 14 DAT): 0% | percentage of damage (herbicide damage score) ([1]; D4539 event 8433, 21 DAT): 0% | percentage of damage (herbicide damage score) ([1]; D4539 event 8434, 7 DAT): 2% | percentage of damage (herbicide damage score) ([1]; D4539 event 8434, 14 DAT): 0% | percentage of damage (herbicide damage score) ([1]; D4539 event 8434, 21 DAT): 35% | percentage of damage (herbicide damage score) ([1]; D4539 event 8438, 7 DAT): 15% | percentage of damage (herbicide damage score) ([1]; D4539 event 8438, 14 DAT): 85% | percentage of damage (herbicide damage score) ([1]; D4539 event 8438, 21 DAT): 95% | percentage of damage (herbicide damage score) ([1]; D4539 event 8439, 7 DAT): 2% | percentage of damage (herbicide damage score) ([1]; D4539 event 8439, 14 DAT): 0% | percentage of damage (herbicide damage score) ([1]; D4539 event 8439, 21 DAT): 0% | percentage of damage (herbicide damage score) ([1]; D4539 event 8447, 7 DAT): 2% | percentage of damage (herbicide damage score) ([1]; D4539 event 8447, 14 DAT): 0% | percentage of damage (herbicide damage score) ([1]; D4539 event 8447, 21 DAT): 0% | percentage of damage (herbicide damage score) ([1]; D4539 event 8448, 7 DAT): 2% | percentage of damage (herbicide damage score) ([1]; D4539 event 8448, 14 DAT): 0% | percentage of damage (herbicide damage score) ([1]; D4539 event 8448, 21 DAT): 0% | percentage of damage (herbicide damage score) ([1]; D4539 event 8460, 7 DAT): 2% | percentage of damage (herbicide damage score) ([1]; D4539 event 8460, 14 DAT): 0% | percentage of damage (herbicide damage score) ([1]; D4539 event 8460, 21 DAT): 0% | percentage of damage (herbicide damage score) ([1]; D4539 event 8461, 7 DAT): 17% | percentage of damage (herbicide damage score) ([1]; D4539 event 8461, 14 DAT): 75% | percentage of damage (herbicide damage score) ([1]; D4539 event 8461, 21 DAT): 90% | percentage of damage (herbicide damage score) ([1]; D4539 event 8462, 7 DAT): 2% | percentage of damage (herbicide damage score) ([1]; D4539 event 8462, 14 DAT): 0% | percentage of damage (herbicide damage score) ([1]; D4539 event 8462, 21 DAT): 3% | IC50 [2]: 0.145 µM | IC50 [3]: 100 µM

Source: US20260226493A1, “HERBICIDE RESISTANT PLANTS” (SYNGENTA CROP PROTECTION AG, priority 2023, published 2026)
